Test results reported in publication PMC11802874, “The hypolipidemic effect of MI-883, the combined CAR agonist/ PXR antagonist, in diet-induced hypercholesterolemia model” (Nature Communications, 2025).
Values joined by “and” are separate entries in the source; they are usually repeats but may differ in a detail not shown here. Equal values may be shown once.

Key:
[1] = tested on: 3D primary human hepatocyte spheroids; assay: RT-qPCR mRNA expression in 3D primary human hepatocyte spheroids; assay type: cell-based; conditions: for CYP2B6 fold change, 3D PHH spheroids, mean of donors / CYP3A4 fold change, 3D PHH spheroids, mean of donors: MI-883 (5 uM)
Description: Briefly, PHHs were cultivated for 6 days to generate compact spheroids by spontaneous self-aggregation and then half of PHH medium was exchanged for FBS-free PHH medium. 3D PHHs were treated with MI-883 (5 μM) commenced from day 8 within a time range of 8–120 h (time points were 8, 12, 24, 48, 72, and 120 h). Conditioned FBS-free PHH medium was changed every 2–3 days of the treatment. […] Data are presented as the mean ± SD of fold change expression gained from 3D spheroids of three different donors. ATP assay has been performed as described.

[2] = target: T1, CAR-LBD (Homo sapiens, UniProt Q14994); assay: MARCoNI CAR-LBD coregulator interaction array; assay type: biochemical; conditions: 100 μM
T1 construct: HIS-tagged CAR-LBD (ThermoFisher Sciences, Cat. No PV4836); purchased ThermoFisher PV4836
Description: The reaction was performed in a fully automated microarray processing and fluorescent imaging platform (PamStation12) at 20 °C for 80 cycles (two cycles per minute). After removal of the unbound CAR-LBD receptor by washing each array with 25 µl Tris-buffered Saline (TBS) buffer, fluorescent images of the PamChip microarrays were obtained using the PamStation12, and then were analyzed for quantification of CAR binding using BioNavigator software (PamGene International B.V.). For data and statistical analysis, BioNavigator was used.
Modulation index (MI) is the log10-transformed relative binding value, which is calculated by the compound’s binding value, relative to the vehicle control (DMSO) binding value.

[3] = tested on: humanized PXR-CAR-CYP3A4/3A7 mice fed HCD; assay: High-cholesterol diet (HCD) study: weights, plasma biochemistry; assay type: in vivo, mouse; conditions: for ALP / ALT / AST / Albumin / Bilirubin / Fe / UA / Urea / LDH / BW (Fig. 4g) / Chol (Fig. 4h) / Glu (Fig. 4h) / HDL (Fig. 4h) / LDL (Fig. 4h) / LW (Fig. 4g) / LW/BW (Fig. 4g) / TG (Fig. 4h): individual animals
Description: For experiments with a high-cholesterol diet (HCD), mice (18–26 weeks) were pretreated ad libitum for 2 weeks with diet containing 15% fat and 12.5 g/kg of cholesterol (E15103, ssniff, Soest, Germany) (Fig. 4f). After this period, animals were randomly assigned to two groups (control vehicle-treated and MI-883-treated animals, with 9 males and 7 females per group). Animals were dosed orally with MI-883 (5 mg/kg every other day—Monday, Wednesday, Friday, and the following Monday and Wednesday, for a total of 5 doses) or vehicle alone (5% DMSO/5% PEG300/90% corn oil) via oral gavage three times per week. The animals remained on the HCD during the treatment period. Mice were sacrificed after 5 treatments.
Mice were weighted and tissues (livers, blood, duodenum, jejunum, ileum, white fat) were removed, weighted and snap frozen in liquid nitrogen and stored at –80 °C until analysis. Blood was collected from the retro-orbital sinus of mice under isoflurane anesthesia into heparin-coated tubes (Kabe Laboratortechnik GmbH, Nümbrecht-Elsenroth, Germany) after 3 h fasting and analyzed on AU480 biochemistry analyzer (Beckman Coulter, Brea, USA). Sample preparation for bile acid and cholesterol analyses from tissues or feces is described below. One of the liver lobes was fixed in formalin, embedded in paraffin blocks, sectioned, and subjected to H&E staining. Blood was analyzed as described in Supplementary, Chapter 10.
Blood was collected from the retro-orbital sinus of mice under isoflurane anesthesia into heparin-coated tubes (Kabe Laboratortechnik GmbH, Nümbrecht-Elsenroth, Germany) after 3 hours of fasting. Blood was left for 10 minutes at room temperature, and then kept on ice until centrifugation (5,000 g at 4°C for 10 minutes). The collected plasma was stored at -80 °C until measurement. Lipoprotein levels and other plasmatic parameters were measured on an AU480 biochemistry analyzer (Beckman Coulter, Brea, USA).

[4] = Chemical stability (shelf, DMSO stock) and solubility in solvents; assay type: physicochemical
Source text: 1. Biological half-life was investigated. But is MI-883 stable on the shelf? […]
Our medicinal chemistry team analyzed the MI-883 sample that had been stored on the lab bench at […]
compared to the freshly prepared sample (see Figure R1).
In addition, the compound is stable for at least two years in dimethyl sulfoxide (DMSO) as we confirm using published protocols 1,2(see data in Table R1).
Table 1: LC/MS data for MI-883 stability in DMSO solution
Study protocol: Stability of MI-883 stock solution in DMSO after two years at -20°C A 10 mM solution of MI-883 was prepared in DMSO and divided into multiple aliquots in 2 mL cryovials.
The samples were stored at -20°C for two years in a standard laboratory freezer. Mass spectrometric analysis was conducted using LC/MS (Sciex QTRAP 7500). Stability was determined based on three independently prepared 1 µM solutions from stored stock.
DMSO stock solution at -20°C over two years. However, for critical pharmaceutical use, additional studies at different temperatures and under varied conditions (e.g., light exposure, humidity) may be necessary to fully assess long-term stability. […]
We used several computational prediction tools to determine water […]
μg/mL (0.9 μM) and 0.2 μg/mL (0.4 μM). Using QikProp tool (Schrödinger software package), the […]
According to the ADMET Predictor software package […]
predictions align with our observations and confirm the poor water solubility of MI-883, although we […]
The compound is well soluble in methanol and can dissolve in ethanol up to a concentration of 30 mM. […]

[5] = first vehicle/MI-883 column pair
[6] = second vehicle/MI-883 column pair

T1 sequence (Q14994 109-348 isoform Q14994-2 limits assumed): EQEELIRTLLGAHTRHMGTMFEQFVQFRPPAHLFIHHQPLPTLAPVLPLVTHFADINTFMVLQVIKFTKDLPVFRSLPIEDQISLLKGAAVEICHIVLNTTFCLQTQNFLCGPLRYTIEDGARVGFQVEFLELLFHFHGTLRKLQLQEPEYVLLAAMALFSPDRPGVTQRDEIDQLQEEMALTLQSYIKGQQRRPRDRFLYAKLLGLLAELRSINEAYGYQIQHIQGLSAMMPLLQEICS

Structure (SMILES): NC(=O)c1cc(Cn2cc(-c3c(-c4ccc(Cl)cc4)nc4cc(F)ccn34)nn2)ccc1Cl [MI-883, 2-chloro-5-((4-(2-(4-chlorophenyl)-7-fluoroimidazo[1,2-a]pyridin-3-yl)-1H-1,2,3-triazol-1-yl)methyl)benzamide]
- proliferative biomarkers MDM2, PCNA, FOXM1 in 3D human hepatocyte spheroid ([1]; 72 h): no significant effects
- CYP2B6 fold change, 3D PHH spheroids, mean of donors ([1]; 8 h): 1.9
- CYP3A4 fold change, 3D PHH spheroids, mean of donors ([1]; 8 h): 0.9
- CYP2B6 fold change, 3D PHH spheroids, mean of donors ([1]; 12 h): 3.0
- CYP3A4 fold change, 3D PHH spheroids, mean of donors ([1]; 12 h): 0.7
- CYP2B6 fold change, 3D PHH spheroids, mean of donors ([1]; 24 h): 5.1
- CYP3A4 fold change, 3D PHH spheroids, mean of donors ([1]; 24 h): 0.8
- CYP2B6 fold change, 3D PHH spheroids, mean of donors ([1]; 48 h): 8.0
- CYP3A4 fold change, 3D PHH spheroids, mean of donors ([1]; 48 h): 1.0
- CYP2B6 fold change, 3D PHH spheroids, mean of donors ([1]; 72 h): 8.2
- CYP3A4 fold change, 3D PHH spheroids, mean of donors ([1]; 72 h): 0.8
- CYP2B6 fold change, 3D PHH spheroids, mean of donors ([1]; 120 h): 6.7
- CYP3A4 fold change, 3D PHH spheroids, mean of donors ([1]; 120 h): 0.7
- CAR-coregulator interaction profile [2]: attracts several coactivators, including NCOA1, NCOA2, and NCOA3 proteins
- ALP ([3]; HCD female): 64 and 60 and 66
- ALT ([3]; HCD female): 52 and 44 and 50 and 65 and 53 and 31 and 37
- AST ([3]; HCD female): 97 and 85 and 59 and 60 and 100 and 48
- Albumin ([3]; HCD female): 29.13 and 29.02 and 28.37 and 27.41 and 25.72 and 27.39 and 28.99
- Bilirubin ([3]; HCD female): 1.92 and 2.23 and 1.15 and 0.79 and 1.09 and 1.2
- Fe ([3]; HCD female): 25.95 and 24.87 and 19.99 and 29.01 and 26.38 and 27.47 and 25.24
- UA ([3]; HCD female): 74.13 and 68.35 and 69.17 and 60.17 and 117.85 and 58.32 and 32.43
- Urea ([3]; HCD female): 5.81 and 6.85 and 7.72 and 6.07 and 8.19 and 6.12 and 7.88
- ALP ([3]; HCD male): 60 and 53 and 64 and 50 and 42 and 46 and 69 and 45 and 43
- ALT ([3]; HCD male): 335 and 154 and 210 and 103 and 48 and 36 and 40 and 194 and 61
- AST ([3]; HCD male): 202 and 190 and 151 and 98 and 62 and 43 and 71 and 125 and 88
- Albumin ([3]; HCD male): 25.95 and 26.89 and 26.71 and 27.24 and 27.46 and 26.93 and 28.1 and 27.95 and 27.85
- Bilirubin ([3]; HCD male): 1.82 and 2.96 and 1.74 and 3.02 and 2.04 and 3.59 and 1.89 and 1.94
- Fe ([3]; HCD male): 21.53 and 13.76 and 24.97 and 21.49 and 28.7 and 25.79 and 20.83 and 28.43 and 27.87
- UA ([3]; HCD male): 56.8 and 93.42 and 54.01 and 55.84 and 44.35 and 31.12 and 35.14 and 37.35 and 25.57
- Urea ([3]; HCD male): 7.34 and 6.71 and 7.14 and 5.73 and 5.13 and 5.97 and 6.54 and 7
- liver weight (LW) and LW/BW ([3]; HCD, p.o. 5 mg/kg, five doses every other day): not after five doses
- LDH ([3]; HCD, (sex not given)): 1.47 and 1.15 and 1.63 and 0.85 and 1.36 and 1.38 and 0.99 and 1.41 and 1.28
- LDH ([3]; HCD, vehicle/MI-883 (sex not given)): 1.12 and 1.15 and 1.19 and 1.1 and 1.09
- BW (Fig. 4g) [3, 5]: 26.3 and 24.9 and 24.8 and 24.3 and 24 and 23.2
- Chol (Fig. 4h) [3, 5]: 3.83 and 3.39 and 3.78 and 3.72 and 3.46 and 3.54 and 3.66
- Glu (Fig. 4h) [3, 5]: 13.29 and 13.05 and 14.81 and 13.6 and 14.89 and 13.61 and 13.46
- HDL (Fig. 4h) [3, 5]: 2.476 and 2.431 and 2.259 and 2.337 and 2.161 and 2.202 and 2.297
- LDL (Fig. 4h) [3, 5]: 1.12 and 1.15 and 1.19 and 1.1 and 1.09
- LW (Fig. 4g) [3, 5]: 1.78 and 1.62 and 1.65 and 1.52 and 1.64 and 1.48
- LW/BW (Fig. 4g) [3, 5]: 6.77 and 6.51 and 6.65 and 6.255 and 6.833 and 6.379
- TG (Fig. 4h) [3, 5]: 1.189 and 1.059 and 1.137 and 1.521 and 2.113 and 1.22 and 1.433
- triglyceride levels in females ([3]; second study (HCD), at the level of statistical significance): some increase
- BW (Fig. 4g) [3, 6]: 30 and 29.4 and 30.6 and 30.9 and 33.4 and 29.7 and 26.5 and 28.4 and 26.8
- Chol (Fig. 4h) [3, 6]: 5.16 and 3.99 and 5.8 and 3.44 and 4.89 and 4.88 and 4.18 and 4.72
- Glu (Fig. 4h) [3, 6]: 13.25 and 13.05 and 16.4 and 12.86 and 18.52 and 15.35 and 11.72 and 18.14 and 17.74
- HDL (Fig. 4h) [3, 6]: 3.01 and 2.484 and 3.335 and 2.267 and 3.073 and 3.039 and 2.781 and 3.388 and 2.988
- LDL (Fig. 4h) [3, 6]: 1.47 and 1.15 and 1.63 and 0.85 and 1.36 and 1.38 and 0.99 and 1.41 and 1.28
- LW (Fig. 4g) [3, 6]: 1.63 and 1.97 and 2.03 and 1.53 and 2.51 and 2.11 and 1.85 and 1.32 and 1.94
- LW/BW (Fig. 4g) [3, 6]: 5.43 and 6.7 and 6.63 and 4.95 and 7.51 and 7.1 and 6.98 and 4.65 and 7.24
- TG (Fig. 4h) [3, 6]: 0.993 and 0.808 and 0.849 and 0.608 and 0.516 and 0.697 and 0.709 and 0.93 and 0.706
- solubility in methanol [4]: well soluble
- LC/MS concentration of 1 µM solution from DMSO stock ([4]; 2 year at -20°C in DMSO): 1.007 µM
- decomposition on the lab bench at room temperature ([4]; 6 months, HPLC/MS): no significant decomposition
- water solubility ([4]; not experimentally determined): low water solubility
- LC/MS concentration of 1 µM solution from DMSO stock ([4]; time 0): 1.012 µM
